Results: patent US11091494B2, “Crystal form of acalabrutinib and preparation method and use thereof” (Crystal Pharmaceutical (Suzhou) Co., Ltd., priority 2018, dated 2021)

How the values were obtained:
[1] = cited from earlier work; for Highest water content: water content varies in different conditions
[2] = Compressibility (tensile strength of compressed tablet); format: physicochemical; conditions: about 80 mg, φ6 mm round tooling, compressed at 10 kN
Protocol: (§1) Approximately 80 mg of Form A and Form I in WO2017002095A1 were weighed into the dies of a φ6 mm round tooling, compressed at 10 kN manually, then stored in a desiccator for 24 hours until complete elastic recovery. Radial crushing force (hardness, H) was tested with an intelligent tablet hardness tester. Diameter (D) and thickness (L) were tested with a caliper. Tensile strength of the powder that with different hardness was calculated with the following formula: T=2H/πDL. Under a certain force, the greater the tensile strength, the better the compressibility.
as §1, with “Form D” for “Form A”, “manually, and” for “manually,”, “powder” for “powder that”
as §1, with “of Form F and Form” for “of Form A and Form”, “kN manually, and then stored” for “kN manually, then stored”, “tested with caliper. Tensile” for “tested with a caliper. Tensile”, “the powder with different” for “the powder that with different”
Approximately 80 mg of Form G and Form I of WO2017002095A1 were weighed into the dies of a φ6 mm round tooling, compressed at 10 kN manually, and then stored in a desiccator for 24 hours until complete elastic recovery. Radial crushing force (hardness, H)) was tested with an intelligent tablet hardness tester. Diameter (D) and thickness (L) were tested with caliper. Tensile strength of the powder with different hardness was calculated with the following formula: T=2H/πDL. Under a certain force, the greater the tensile strength, the better the compressibility.
as §1, with “of Form CS15 and Form” for “of Form A and Form”, “kN manually, and then stored” for “kN manually, then stored”, “tested with caliper. Tensile” for “tested with a caliper. Tensile”, “the powder with different” for “the powder that with different”

[3] = Intrinsic dissolution rate in pH 2.5 HCl/NaCl aqueous solution; format: physicochemical; conditions: for Cumulative dissolution / IDR (intrinsic dissolution rate): pH 2.5 HCl/NaCl, 37° C.; for Cumulative dissolution: 0.5 cm^2 pellet; for IDR (intrinsic dissolution rate): slope over 0-45 minutes
Protocol: (§2) Approximately 200 mg of Form A and Form I in WO2017002095A1 were added into the die, compressed at 10 kN and held for 1 minute to obtain a pellet having a surface area of 0.5 cm^2. The whole tool with the pellet was transferred to a dissolution apparatus to test the intrinsic dissolution rate. The slope (mg/min) was calculated according to the data within 0-45 minutes. Intrinsic dissolution rate (IDR, mg/min/cm^2) was further calculated according to the slope.
as §2, with “Form D” for “Form A”
as §2, with “Form F” for “Form A”, “intrinsic dissolution.” for “intrinsic dissolution rate.”
as §2, with “Form G” for “Form A”, “intrinsic dissolution.” for “intrinsic dissolution rate.”
as §2, with “Form CS15” for “Form A”, “intrinsic dissolution.” for “intrinsic dissolution rate.”

[4] = Stability of crystalline form on storage, checked by XRPD; format: physicochemical; conditions: for Solid form: 2 months, XRPD
Protocol: Approximately 10 mg of Form A of the present disclosure was weighed and stored at different conditions of 25° C./60% RH in open dish, 25° C./60% RH in closed dish, 40° C./75% RH in open dish, and 40° C./75% RH in closed dish. Crystalline forms were checked by XRPD.
Approximately 10 mg of Form D of the present disclosure was weighed and stored at different conditions of 25° C./60% RH in closed dish, 25° C./60% RH in open dish, 40° C./75% RH in closed dish. Crystalline form was checked by XRPD.
Approximately 10 mg of Form F of the present disclosure was weighed and stored at different conditions of 25° C./60% RH in closed dish, 25° C./60% RH in open dish, and 40° C./75% RH in closed dish, 40° C./75% RH in open dish. Crystalline forms were checked by XRPD.
Approximately 10 mg of Form G of the present disclosure was weighed and stored at 25° C./60% RH in closed dish. Crystalline forms were checked by XRPD.
Approximately 10 mg of Form CS15 of the present disclosure was weighed and stored at different conditions of 25° C./60% RH in open dish, 25° C./60% RH in closed dish. Crystalline forms were checked by XRPD.

[5] = Adhesiveness (amount of material sticking to the punch); format: physicochemical; conditions: about 30 mg, φ8 mm round tooling, 10 kN, compression repeated twice
Protocol: (§3) Approximately 30 mg of Form A and Form I in WO2017002095A1 were weighed, added into the dies of a φ8 mm round tooling, compressed at 10 kN and held for about 30 s. The amount of material sticking to the punch was weighed. The compression was repeated twice and the cumulative amount and average amount of material sticking to the punch during the compression were recorded.
as §3, with “Form F” for “Form A”
as §3, with “Form G” for “Form A”

Row | SMILES | Stability of the crystalline form ([1]; as disclosed in WO2017002095A1) | Highest water content [1] | Tensile strength [2] | Cumulative dissolution ([3]; 0 min) | Cumulative dissolution ([3]; 5 min) | Cumulative dissolution ([3]; 10 min) | Cumulative dissolution ([3]; 15 min) | Cumulative dissolution ([3]; 20 min) | Cumulative dissolution ([3]; 25 min) | Cumulative dissolution ([3]; 30 min) | Cumulative dissolution ([3]; 35 min) | Cumulative dissolution ([3]; 45 min) | IDR (intrinsic dissolution rate) [3] | also measured
1 | CC#CC(=O)N1CCC[C@H]1c1nc(-c2ccc(C(=O)Nc3ccccn3)cc2)c2c(N)nccn12 [Crystalline form III, (S)-4-(8-amino-3-(1-(but-2-ynoyl)pyrrolidin-2-yl)imidazo[1,5-a]pyrazin-1-yl)-N-(pyridin-2-yl)benzamide] | unstable | 8% |  |  |  |  |  |  |  |  |  |  |  | 
2 | CC#CC(=O)N1CCC[C@H]1c1nc(-c2ccc(C(=O)Nc3ccccn3)cc2)c2c(N)nccn12 [Crystalline form II, (S)-4-(8-amino-3-(1-(but-2-ynoyl)pyrrolidin-2-yl)imidazo[1,5-a]pyrazin-1-yl)-N-(pyridin-2-yl)benzamide] |  | 10% |  |  |  |  |  |  |  |  |  |  |  | Flowability ([1]; as disclosed in WO2017002095A1): poor
3 | CC#CC(=O)N1CCC[C@H]1c1nc(-c2ccc(C(=O)Nc3ccccn3)cc2)c2c(N)nccn12 [Form D, (S)-4-(8-amino-3-(1-(but-2-ynoyl)pyrrolidin-2-yl)imidazo[1,5-a]pyrazin-1-yl)-N-(pyridin-2-yl)benzamide] |  |  | 0.83 MPa | 0.00 mg | 0.70 mg | 1.73 mg | 2.82 mg | 3.57 mg | 4.77 mg | 6.26 mg | 7.36 mg | 9.72 mg | 0.4112 mg/min/cm^2 | IDR relative to that of Form I in WO2017002095A1 ([3]; pH 2.5 HCl/NaCl solution): 1.1 times; Time kept stable (crystalline state doesn't change) ([4]; 25° C./60% RH in closed dish): at least 2 months; Solid form ([4]; 25° C./60% RH in closed dish): Form D; Chemical purity on storage ([4]; 25° C./60% RH in open and closed dishes, at least 2 months): remains substantially unchanged; Time kept stable (crystalline state doesn't change) ([4]; 25° C./60% RH in open dish): at least 2 months; Solid form ([4]; 25° C./60% RH in open dish): Form D; Time kept stable (crystalline state doesn't change) ([4]; 40° C./75% RH in closed dish): at least 2 months; Solid form ([4]; 40° C./75% RH in closed dish): Form D
4 | CC#CC(=O)N1CCC[C@H]1c1nc(-c2ccc(C(=O)Nc3ccccn3)cc2)c2c(N)nccn12 [Form I in WO2017002095A1, (S)-4-(8-amino-3-(1-(but-2-ynoyl)pyrrolidin-2-yl)imidazo[1,5-a]pyrazin-1-yl)-N-(pyridin-2-yl)benzamide, reference compound] |  |  | Unable to be compressed | 0.00 mg | 0.92 mg | 1.64 mg | 2.81 mg | 3.66 mg | 4.62 mg | 5.58 mg | 6.40 mg | 8.16 mg | 0.3656 mg/min/cm^2 | Average amount (material sticking to the punch) [5]: 45 µg; Cumulative amount (material sticking to the punch) [5]: 90 µg
5 | CC#CC(=O)N1CCC[C@H]1c1nc(-c2ccc(C(=O)Nc3ccccn3)cc2)c2c(N)nccn12 [Crystalline form IV, (S)-4-(8-amino-3-(1-(but-2-ynoyl)pyrrolidin-2-yl)imidazo[1,5-a]pyrazin-1-yl)-N-(pyridin-2-yl)benzamide] | unstable |  |  |  |  |  |  |  |  |  |  |  |  | 
